Reference: US8716295B2, “Fluoroquinolone derivatives or sulfonamide moiety-containing compounds as inhibitors of tyrosyl-dnaphosphodiesterase (TDP1)” (priority 2010, dated 2014)
“Also recorded” adds a separate entry of the source. Read-outs that look alike come from different tables or passages of the source.

Experiments:
recombinant Tdp1 = recombinant Tdp1 (Homo sapiens, UniProt Q9NUW8); experiment: Gel-based Tdp1 catalytic activity inhibition assay (5'-32P-labeled N14Y DNA substrate, denaturing PAGE); type: biochemical; details: for IC50: 0.2 nmol/L recombinant Tdp1, 1 nmol/L N14Y substrate, 15 min, room temperature
Protocol: 5′-^32P-labeled DNA substrate (1 nmol/L; N14Y; 5′-[…]-pY-3′) was incubated with 0.2 nmol/L recombinant Tdp1 in the absence or presence of inhibitor for 15 min at room temperature in an assay buffer containing 1×PBS, pH 7.4, 80 mmol/L KCl and 0.01% Tween-20. Reactions were terminated by the addition of 1 volume of gel loading buffer [99.5% (v/v) formamide, 5 mmol/L EDTA, 0.01% (w/v) xylene cyanol, and 0.01% (w/v) bromophenol blue]. Samples were subjected to a 16% denaturing PAGE and gels were exposed after drying to a PhosphorImager screen (GE Healthcare). Gel images were scanned using a Typhoon 8600 (GE Healthcare) and densitometric analyses were performed using the ImageQuant software package (GE Healthcare).

[1] = tested on: human osteosarcoma U2OS cells; experiment: Cytotoxicity/proliferation (MTS) assay for synergy with camptothecin; type: cell-based; details: 72 hours, NF-SDM at 3, 6 and 12 μM
Protocol: U2OS cells (Developmental Therapeutics Program, NCI) were plated at 3×10^3 cells in a total volume of 100 μl per well in a 96 well plate and incubated at 37° C./5% CO2 for 24 hours prior to drug treatment. CPT and another drug of interest (both in DMSO stock solution) were prepared at double the desired concentration, and serially diluted in cells' media. After medium was aspirated off cells, 50 μl of CPT was plated down each column at four-fold dilutions in subsequent columns and 50 μl of another drug of interest was plated across rows, at two-fold dilutions in subsequent rows. A single drug dose response was also included for each drug tested, to which 50 μl of regular media was added to reconstitute a final volume of 100 μl in each well. Plates were further incubated for 72 hours and proliferation was assayed by adding 20 μl of 3-(4,5-dimethylthiazol-2-yl)-5-(3 carboxymethoxyphenyl)-2-(4-sulfophenyl)-2H-tetrazolium (MTS) Cell Titer Reagent (Promega) to each well. Plates were lightly mixed and placed back into the incubator until the appropriate color change occurred (˜1 hr), at which point plates were read on a Molecular Device Gemini fluorescence plate reader at an absorbance of 490 nm for cell viability. Raw data were plotted using GraphPad Prism and compared to each sample's control (GraphPad Software Inc.).

[2] = read-out: unable to inhibit Tdp1 / inactive at concentrations up to

recombinant Tdp1, sequence (Q9NUW8 whole entry): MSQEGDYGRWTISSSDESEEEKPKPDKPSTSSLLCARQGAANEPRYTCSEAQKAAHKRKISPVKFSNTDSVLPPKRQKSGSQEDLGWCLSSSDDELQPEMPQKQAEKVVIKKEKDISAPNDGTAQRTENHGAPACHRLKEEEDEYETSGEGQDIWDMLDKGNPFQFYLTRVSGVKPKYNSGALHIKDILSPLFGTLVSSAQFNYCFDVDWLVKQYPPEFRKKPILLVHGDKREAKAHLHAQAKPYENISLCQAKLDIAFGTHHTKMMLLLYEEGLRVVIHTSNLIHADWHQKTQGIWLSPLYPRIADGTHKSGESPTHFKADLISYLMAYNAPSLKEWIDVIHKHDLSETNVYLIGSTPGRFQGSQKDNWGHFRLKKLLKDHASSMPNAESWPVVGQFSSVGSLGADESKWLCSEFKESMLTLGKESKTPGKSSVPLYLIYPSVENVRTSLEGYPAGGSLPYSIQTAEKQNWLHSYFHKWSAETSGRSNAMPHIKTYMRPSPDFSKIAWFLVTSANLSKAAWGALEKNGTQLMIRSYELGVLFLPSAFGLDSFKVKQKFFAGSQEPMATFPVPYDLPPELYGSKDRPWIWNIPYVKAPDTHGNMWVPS

Row | IC50 (recombinant Tdp1; [2]) [µM] | Compound | Tdp1 inhibitory activity (in words) (recombinant Tdp1) | IC50 (recombinant Tdp1; read-out: inhibit Tdp1 catalytic activity (IC50 Tdp1 inhibition)) [µM] | synergy with the TopI poison camptothecin (CPT) on cell growth/viability [1]
1 |  | CCn1cc(C(=O)O)c(=O)c2cc(F)c(N3CCN(CNc4ccc(S(=O)(=O)Nc5nc(C)cc(C)n5)cc4)CC3)cc21 [NF-SDM] | nanomolar range | 0.005 | synergize with CPT; also recorded: synergistic effect; also recorded: acts synergistically
2 | > 333 | COc1c(N2CCNC(C)C2)c(F)cc2c(=O)c(C(=O)O)cn(C3CC3)c12 (stereo not shown) [gatifloxacin] |  |  | 
3 | > 333 | CCn1cc(C(=O)O)c(=O)c2cc(F)c(N3CCNCC3)cc21 [norfloxacin] |  |  | 
4 | > 333 | Cc1cc(C)nc(NS(=O)(=O)c2ccc(N)cc2)n1 [sulfadimidine] | does not inhibit Tdp1 |  | 
